A melting point compilation (Tetko et al.; mined from patent text by program, amines drawn as free bases though some values may be those of a salt)
Residues, ends and D or L forms follow the SMILES beside them.

Row | melting point [°C] | Structure (SMILES)
1 | 204 to 206 | Cc1ccc(C(=O)NNC(=O)c2ccccc2Cl)cc1
2 | 139 to 140 | CC1=NN(c2ccc(CO)cc2)C(=O)C1
3 | 168 to 172 | Nc1nc2ccccc2c2c1ncn2COCc1ccccc1
4 | 217 to 222 | CC(C)Oc1c(F)c(F)cc2c(=O)c(C(=O)O)cn(-c3cc(N)c(F)cc3F)c12
5 | 105 to 107 | Cc1ccnc2c1C(=O)CC(c1cccs1)C2 (stereo unspecified)
6 | 109 to 112 | CCCc1c(OCCCCCCc2cc(C)c(OC)c(OC)c2C)ccc(C(=O)O)c1O
7 | 238 | Cc1cc(C23CC4CC(CC(C4)C2)C3)ccc1NS(=O)(=O)c1cc([N+](=O)[O-])ccc1Cl
8 | 124 to 126 | C=CC(=O)NCC(=O)O
9 | 301 | CN1CCN(S(=O)(=O)c2cc(NC(=O)c3cnn4c(C(F)(F)F)cc(-c5ccc(C(F)(F)F)cc5)nc34)c(Cl)s2)CC1
10 | 82 to 84 | CCOCc1nc2c(N)nc3cc(OCCNC(=O)OC(C)(C)C)ccc3c2n1CC1COC(C)(C)O1 (stereo unspecified)
11 | 188 | COc1ccc2ccc(N3C(=O)c4ccccc4C3OCC(=O)OC(C)(C)C)nc2n1 (stereo unspecified)
12 | 135 to 137 | O=C1C2CCCC2=Nc2ccccc2N1Cc1ccccc1F (stereo unspecified)
13 | 47.5 to 48 | O=C(Cc1ccc(Br)cc1)OCc1ccccc1
14 | 77 to 78 | FC(F)(F)c1cccc(OCc2ccc3ccccc3n2)c1
15 | 98.5 to 99.5 | CCCCc1cccnc1NC=C(C#N)C(=O)OCC
16 | 160 to 164 | Cc1cc(=O)n2c3c(cc(C(O)(C(F)(F)F)C(F)(F)Cl)cc13)CC2 (stereo unspecified)
17 | 152 | CCCCOc1c(CNC(=O)OC(C)(C)C)n(CC(C)C)c(=O)c2ccc(-c3noc(C)n3)cc12
18 | 47 to 49 | CN(C)CCCOc1ccc(-c2nnc(CSCCOc3ccccc3)o2)nc1
19 | 136 to 137 | S=C=Nc1ccc(-c2nc(-c3ccco3)no2)cc1
20 | > 320 | Nc1nc2cc3[nH]c(-c4ccncc4)nc3cc2[nH]1
21 | 145 to 151 | CC(N)CC(=O)N(c1ccc(Nc2ccccc2)cc1)C(C)C (stereo unspecified)
22 | 88 to 90 | O=C(c1ccccc1)c1ccc(OCc2cccnc2)cc1O
23 | 95 to 97 | NCCCCCCCCCCN1CCN(CC(=O)N2c3ccccc3C(=O)Nc3cccnc32)CC1
24 | 169 to 171 | CSCC[C@H](NC(=O)OC(C)(C)C)C(=O)NCC(=O)Oc1c(Cl)c(Cl)c(Cl)c(Cl)c1Cl
25 | 75 to 77 | Cc1nc(C(F)(F)F)ccc1C(=O)C1=C(O)C(C)(C)CCC1=O
26 | 166 | O=C(O)C(Cl)=C(Cl)C(O)=NCCc1ccc([N+](=O)[O-])cc1

More lines, now with the values behind:

Row | Structure (SMILES) | melting point [°C]
27 | O=C(C#CCO)c1ccc(F)cc1 | 63
28 | CC(=O)NC[C@H]1CN(c2ccc(N3CCC(O)CC3)cc2)C(=O)O1 | 64 to 66
29 | O=C(Nc1ccc2[nH]cc(C3CCNCC3)c2c1)c1ccc(F)cc1 | 229 to 230
30 | CC(=O)c1ccc(S(=O)(=O)N2CCCC2)cc1 | 138 to 139
31 | O=C(CCl)N1CC(c2ccccc2)c2ccccc21 (stereo unspecified) | 76 to 78
32 | COC(=O)C1=CCC(=C2CCc3nc4c(nc3C2=O)C(C)(C)CCC4(C)C)C=C1 | 149 to 151
33 | CC(C)(C)OC(=O)c1nc(-c2cccc3ccccc23)[nH]c1-c1ccncc1 | 184 to 190
34 | CCN1C(=O)OC(=Cc2ccc3c(c2)OCO3)C1=O | 135 to 137
35 | CC(C#N)c1ccc(-c2nc3ccccc3o2)cc1 (stereo unspecified) | 116 to 117
36 | CCCC1CCC(c2cc3c4c(c(F)c(F)c3o2)OCCC4)CC1 (stereo unspecified) | 89
37 | COc1cc(C=O)cc(Cl)c1Cl | 97 to 98.5
38 | CC(C)CN(Cc1nc(-c2ncn3c2CN(C)C(=O)c2ccccc2-3)no1)CC(C)C | 170 to 172
39 | NS(=O)(=O)c1ccc(-c2cnn(CC(F)(F)F)c(=O)c2-c2ccc(Cl)cc2)cc1 | 154 to 156
40 | COCCOc1cc(-c2ccccn2)nc(-c2ccccn2)c1 | 105 to 106
41 | CCNc1nc(C)c(C(=O)OCC)c(NCCCN(C)C)c1[N+](=O)[O-] | < 20
42 | COc1ccccc1-n1c(=O)[nH]c2c(C(N)=O)nc(-c3cccc(OC(F)(F)F)c3)nc21 | 269 to 272
43 | CCOc1ccc(Br)c(Cl)c1F | 48 to 48.5
44 | O=C(O)CCCc1c([N+](=O)[O-])cc(O)c(O)c1[N+](=O)[O-] | 165 to 170
45 | NC(=O)c1cc2c(cc1OCC1CCCCC1)OCCCC2=O | 185 to 186
46 | CC(=O)NC(C)C(=O)NC(C)C(=O)NC(CC(C)C)C(=O)O (stereo not drawn) (Ac-Ala-Ala-Leu-OH; configuration not given here) | 185 to 186
47 | CC(=O)S[C@H]1CO[C@@H](c2ccccc2)OC1 | 94 to 95
48 | Cc1nc(-c2ccccc2)nc(OCC(=O)O)c1C | 175 to 177
49 | CC(=O)c1ccc2c(c1)C(C(=O)Nc1cccc(C(=O)Nc3ccc(Br)cc3)c1)C(=O)N2C (stereo unspecified) | 234 to 236

Row | Structure (SMILES) | melting point [°C]
50 | CCCS(=O)(=O)c1cc([C@H]2CC[C@H](c3cc(OC)c(OC)c(OC)c3)O2)cc(OC)c1OCCSc1ccc(N(C)C)cc1 (relative stereo) | 113 to 115
51 | COc1ccc([N+](=O)[O-])c(NC(C)=O)c1 | 129
52 | Nc1cccc(NC(=O)OCc2cc3cc(-c4ccc(F)cc4)ccc3o2)c1C(=O)O | 176 to 178
53 | Cn1nc(-c2ccc([N+](=O)[O-])o2)c2c(NO)ncnc21 | 294
54 | CCOC(=S)CC/C(C)=C/Cc1c(OC)c(C)c2c(c1OC(C)=O)C(=O)OC2 | 81 to 84
55 | CC(C)c1c(C(=O)Cl)n(-c2ccc(F)cc2)c(=O)c2ccccc12 | 113 to 115
56 | Cc1oc(-c2ccccc2)nc1CCc1ccc(/C=C/C=C/CO)cc1 | 117 to 118
57 | CC(=O)c1cc(O)cc2cc(-c3ccc(O)cc3)oc12 | 274 to 276
58 | COC(=O)c1ccc(Cn2c(=O)c(C)c3sc(C(=O)NCc4cccc(F)c4)cn3c2=O)cc1 | 209 to 211
59 | CCNC(=O)Nc1nc2cc(-c3cccnc3)cc(N3CCC(N(C)C)C3)n2n1 (stereo unspecified) | 248 to 250
60 | CC1COc2c(F)c(F)cc3c2N1C(=O)C3=O (stereo unspecified) | 169 to 171
61 | Cc1nc2c3c(c(C(=O)N(C)C)cc2n1C)CC[C@@H](c1ccccc1)O3 | 227 to 228
62 | O=[N+]([O-])c1cc2nc(O)c(O)nc2c2nsnc12 | > 300
63 | Cc1ncccc1COc1ccc2cc(Cn3cc(CCC(=O)O)c(-c4ccccc4)c3)ccc2c1 | 163 to 164
64 | CC(=O)Nc1ccc(S(=O)(=O)Nc2nnc(C(C)(C)C)s2)cc1 | 137 to 138
65 | COc1nc(N)nc(-c2ccc(S(C)(=O)=O)cc2)c1-c1ccc(=O)n(C(C)C)n1 | 148 to 151
66 | CSC1=Nc2ccccc2Cc2nccn21 | 200 to 201
67 | N#Cc1cc([N+](=O)[O-])ccc1Oc1ccc(Cl)cc1Cl | 154
68 | CC(C)n1c(=O)oc2cc([N+](=O)[O-])cc(F)c21 | 122 to 123
69 | CC(=O)NCC1CC(c2ccc(-n3ccc(C=NO)c3)c(F)c2)=NO1 (single isomer, unassigned; (-)) | 216 to 217
70 | CSC(C)=NOC(=O)NCSN(C(C)(C)C)P1(=O)OCC(C)(C)CO1 | 134
71 | CC(=O)NC(C)c1c[nH]c(C)n1 (stereo unspecified) | 125 to 128
